Measurements from patent US20240140957A1, “BRIDGED COMPOUNDS AS KRAS G12D INHIBITOR AND DEGRADER AND THE USE THEREOF” (BeiGene Switzerland GmbH, priority 2021, published 2024).

target: GDP-loaded KRAS G12D (Homo sapiens, UniProt P01116, G12D); assay: KRAS G12D Probe Displacement Assay; assay type: binding; conditions: KRAS G12D 0.5 nM, biotinylated probe 2 4 nM; Table 6 letters; read-out: KRAS G12D Probe Displacement Assay IC50 (class)
Sequence (P01116 1-188 isoform P01116-2 G12D): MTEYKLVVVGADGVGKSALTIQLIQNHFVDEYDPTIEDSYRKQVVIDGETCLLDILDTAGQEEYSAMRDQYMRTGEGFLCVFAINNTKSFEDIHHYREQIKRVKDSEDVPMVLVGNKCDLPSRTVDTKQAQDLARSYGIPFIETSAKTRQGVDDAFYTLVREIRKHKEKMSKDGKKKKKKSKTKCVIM

IC50 [nM] | SMILES
< 50 | CC12CC(COc3nc(N4CC5CCC(C4)N5)c4cc(C(F)(F)F)c(-c5ccc(F)c6sc(N)nc56)c(F)c4n3)(CO1)C2 [Example E174, 4-(4-(3,8-diazabicyclo[3.2.1]octan-3-yl)-8-fluoro-2-((1-methyl-2-oxabicyclo[2.1.1]hexan-4-yl)methoxy)-6-(trifluoromethyl)quinazolin-7-yl)-7-fluorobenzo[d] thiazol-2-amine]
< 50 | CS(=O)(=O)N1CC(COc2nc(N3CC4CCC(C3)N4)c3cc(C(F)(F)F)c(-c4ccc(F)c5sc(N)nc45)c(F)c3n2)C1 [Example E175, 4-(4-(3,8-diazabicyclo[3.2.1]octan-3-yl)-8-fluoro-2-((1-(methylsulfonyl)azetidin-3-yl)methoxy)-6-(trifluoromethyl)quinazolin-7-yl)-7-fluorobenzo[d]thiazol-2-amine]
< 50 | COC1(COc2nc(N3CC4CCC(C3)N4)c3cc(C(F)(F)F)c(-c4ccc(F)c5sc(N)nc45)c(F)c3n2)COC1 [Example E176, 4-(4-(3,8-diazabicyclo[3.2.1]octan-3-yl)-8-fluoro-2-((3-methoxyoxetan-3-yl)methoxy)-6-(trifluoromethyl)quinazolin-7-yl)-7-fluorobenzo[d] thiazol-2-amine]
< 50 | Nc1nc2c(-c3c(C(F)(F)F)cc4c(N5CC6CCC(C5)N6)nc(OC5CC(O)C5)nc4c3F)ccc(F)c2s1 (stereo not shown) [Example E177, 3-((7-(2-amino-7-fluorobenzo[d]thiazol-4-yl)-4-(3,8-diazabicyclo [3.2.1]octan-3-yl)-8-fluoro-6-(trifluoromethyl)quinazolin-2-yl)oxy)cyclobutan-1-ol]
< 50 | CN1CCCC(C#N)(COc2nc(N3CC4CCC(C3)N4)c3cc(Cl)c(-c4ccc(F)c5sc(N)nc45)c(F)c3n2)C1 (stereo not shown) [Example E178, 3-(((7-(2-amino-7-fluorobenzo[d]thiazol-4-yl)-4-(3,8-diazabicyclo [3.2.1]octan-3-yl)-6-chloro-8-fluoroquinazolin-2-yl)oxy)methyl)-1-methylpiperidine-3-carbonitrile]
< 50 | Nc1nc2c(-c3c(C(F)(F)F)cc4c(N5CC6CCC(C5)N6)nc(OC[C@H]5CNC(=O)CO5)nc4c3F)ccc(F)c2s1 [Example E179, (6R)-6-(((7-(2-amino-7-fluorobenzo[d]thiazol-4-yl)-4-(3,8-diazabicyclo[3.2.1]octan-3-yl)-8-fluoro-6-(trifluoromethyl)quinazolin-2-yl)oxy)methyl)morpholin-3-one]
< 50 | CC(F)(F)C1(COc2nc(N3CC4CCC(C3)N4)c3cc(C(F)(F)F)c(-c4ccc(F)c5sc(N)nc45)c(F)c3n2)COC1 [Example E180, 4-(4-(3,8-diazabicyclo[3.2.1]octan-3-yl)-2-((3-(1,1-difluoroethyl)oxetan-3-yl)methoxy)-8-fluoro-6-(trifluoromethyl)quinazolin-7-yl)-7-fluorobenzo[d]thiazol-2-amine]
< 50 | CC1(COc2nc(N3CC4CCC(C3)N4)c3cc(C(F)(F)F)c(-c4ccc(F)c5sc(N)nc45)c(F)c3n2)CCOC1 (stereo not shown) [Example E181, 4-(4-(3,8-diazabicyclo[3.2.1]octan-3-yl)-8-fluoro-2-((3-methyltetrahydrofuran-3-yl)methoxy)-6-(trifluoromethyl)quinazolin-7-yl)-7-fluorobenzo[d]thiazol-2-amine]
< 50 | CC1(COc2nc(N3CC4CCC(C3)N4)c3cc(C(F)(F)F)c(-c4ccc(F)c5sc(N)nc45)c(F)c3n2)CCOCC1 [Example E182, 4-(4-(3,8-diazabicyclo[3.2.1]octan-3-yl)-8-fluoro-2-((4-methyltetra hydro-2H-pyran-4-yl)methoxy)-6-(trifluoromethyl)quinazolin-7-yl)-7-fluorobenzo[d]thiazol-2-amine]
< 50 | CC1(COc2nc(N3CC4CCC(C3)N4)c3cc(C(F)(F)F)c(-c4ccc(F)c5sc(N)nc45)c(F)c3n2)CCCOC1 (stereo not shown) [Example E183, 4-(4-(3,8-diazabicyclo[3.2.1]octan-3-yl)-8-fluoro-2-((3-methyltetra hydro-2H-pyran-3-yl)methoxy)-6-(trifluoromethyl)quinazolin-7-yl)-7-fluorobenzo[d]thiazol-2-amine]
< 50 | Nc1nc2c(-c3c(C(F)(F)F)cc4c(N5CC6CCC(C5)N6)nc(OCCc5cccnc5)nc4c3F)ccc(F)c2s1 [Example E184, 4-(4-(3,8-diazabicyclo[3.2.1]octan-3-yl)-8-fluoro-2-(2-(pyridin-3-yl)ethoxy)-6-(trifluoromethyl)quinazolin-7-yl)-7-fluorobenzo [d]thiazol-2-amine]
< 50 | Nc1nc2c(-c3c(C(F)(F)F)cc4c(N5CC6CCC(C5)N6)nc(OCCn5cccn5)nc4c3F)ccc(F)c2s1 [Example E185, 4-(2-(2-(1H-pyrazol-1-yl)ethoxy)-4-(3,8-diazabicyclo[3.2.1]octan-3-yl)-8-fluoro-6-(trifluoromethyl)quinazolin-7-yl)-7-fluorobenzo[d]thiazol-2-amine]
< 50 | N#CC12CC(COc3nc(N4CC5CCC(C4)N5)c4cc(C(F)(F)F)c(-c5ccc(F)c6sc(N)nc56)c(F)c4n3)(C1)C2 [Example E186, 3-(((7-(2-amino-7-fluorobenzo[d]thiazol-4-yl)-4-(3,8-diazabicyclo [3.2.1]octan-3-yl)-8-fluoro-6-(trifluoromethyl)quinazolin-2-yl)oxy)methyl)bicyclo[1.1.1] pentane-1-carbonitrile]
< 50 | Nc1nc2c(-c3c(C(F)(F)F)cc4c(N5CC6CCC(C5)N6)nc(OCC5(CO)CCOCC5)nc4c3F)ccc(F)c2s1 [Example E187, (4-(((7-(2-amino-7-fluorobenzo[d]thiazol-4-yl)-4-(3,8-diazabicyclo[3.2.1]octan-3-yl)-8-fluoro-6-(trifluoromethyl)quinazolin-2-yl)oxy)methyl)tetrahydro-2H-pyran-4-yl)methanol]
< 50 | N#Cc1cncc(CCOc2nc(N3CC4CCC(C3)N4)c3cc(C(F)(F)F)c(-c4ccc(F)c5sc(N)nc45)c(F)c3n2)c1 [Example E188, 5-(2-((7-(2-amino-7-fluorobenzo[d]thiazol-4-yl)-4-(3,8-diazabicyclo[3.2.1]octan-3-yl)-8-fluoro-6-(trifluoromethyl)quinazolin-2-yl)oxy)ethyl) nicotinonitrile]
< 50 | Nc1nc2c(-c3c(C(F)(F)F)cc4c(N5CC6CCC(C5)N6)nc(OCCC5COC5)nc4c3F)ccc(F)c2s1 [Example E189, 4-(4-(3,8-diazabicyclo[3.2.1]octan-3-yl)-8-fluoro-2-(2-(oxetan-3-yl)ethoxy)-6-(trifluoromethyl)quinazolin-7-yl)-7-fluorobenzo[d]thiazol-2-amine]
< 50 | Nc1nc2c(-c3c(C(F)(F)F)cc4c(N5CC6CCC(C5)N6)nc(OCC5(CO)CCCC5)nc4c3F)ccc(F)c2s1 [Example E190, (1-(((7-(2-amino-7-fluorobenzo[d]thiazol-4-yl)-4-(3,8-diazabicyclo[3.2.1]octan-3-yl)-8-fluoro-6-(trifluoromethyl)quinazolin-2-yl)oxy)methyl)cyclopentyl)methanol]
< 50 | Nc1nc2c(-c3c(C(F)(F)F)cc4c(N5CC6CCC(C5)N6)nc(OCC5(CO)CCCCC5)nc4c3F)ccc(F)c2s1 [Example E191, (1-(((7-(2-amino-7-fluorobenzo[d]thiazol-4-yl)-4-(3,8-diazabicyclo[3.2.1]octan-3-yl)-8-fluoro-6-(trifluoromethyl)quinazolin-2-yl)oxy)methyl)cyclohexyl) methanol]
< 50 | N#CC1(COc2nc(N3CC4CCC(C3)N4)c3cc(C(F)(F)F)c(-c4ccc(F)c5sc(N)nc45)c(F)c3n2)CCCC1 [Example E192, 1-(((7-(2-amino-7-fluorobenzo[d]thiazol-4-yl)-4-(3,8-diazabicyclo [3.2.1]octan-3-yl)-8-fluoro-6-(trifluoromethyl)quinazolin-2-yl)oxy)methyl)cyclopentane-1-carbonitrile]
< 50 | Cc1cc(N)nc(-c2c(Cl)cc3c(N4CC5CCC(C4)N5)nc(OCC(C)(C)CO)nc3c2F)c1C(F)(F)F [Example E193, 3-((7-(6-amino-4-methyl-3-(trifluoromethyl)pyridin-2-yl)-4-(3,8-diazabicyclo[3.2.1]octan-3-yl)-6-chloro-8-fluoroquinazolin-2-yl)oxy)-2,2-dimethylpropan-1-ol]
< 50 | Cc1cc(N)nc(-c2c(Cl)cc3c(N4CC5CCC(C4)N5)nc(OCC(C)(C)C#N)nc3c2F)c1C(F)(F)F [Example E194, 3-((7-(6-amino-4-methyl-3-(trifluoromethyl)pyridin-2-yl)-4-(3,8-diazabicyclo[3.2.1]octan-3-yl)-6-chloro-8-fluoroquinazolin-2-yl)oxy)-2,2-dimethylpropanenitrile]
< 50 | Cc1cc(N)nc(-c2c(Cl)cc3c(N4CC5CCC(C4)N5)nc(OCC4(C#N)CCOCC4)nc3c2F)c1C(F)(F)F [Example E195, 4-(((7-(6-amino-4-methyl-3-(trifluoromethyl)pyridin-2-yl)-4-(3,8-diazabicyclo[3.2.1]octan-3-yl)-6-chloro-8-fluoroquinazolin-2-yl)oxy)methyl)tetrahydro-2H-pyran-4-carbonitrile]
< 50 | Cc1cc(N)nc(-c2c(Cl)cc3c(N4CC5CCC(C4)N5)nc(OCC4(CO)CCOCC4)nc3c2F)c1C(F)(F)F [Example E196, (4-(((7-(6-amino-4-methyl-3-(trifluoromethyl)pyridin-2-yl)-4-(3,8-diazabicyclo[3.2.1]octan-3-yl)-6-chloro-8-fluoroquinazolin-2-yl)oxy)methyl)tetrahydro-2H-pyran-4-yl)methanol]
< 50 | Cc1cc(N)nc(-c2c(Cl)cc3c(N4CC5CCC(C4)N5)nc(OCC4(CO)CC4)nc3c2F)c1C(F)(F)F [Example E197, (1-(((7-(6-amino-4-methyl-3-(trifluoromethyl)pyridin-2-yl)-4-(3,8-diazabicyclo[3.2.1]octan-3-yl)-6-chloro-8-fluoroquinazolin-2-yl)oxy)methyl)cyclopropyl) methanol]
50 to 100 | Cc1cc(N)nc(-c2c(Cl)cc3c(N4CC5CCC(C4)N5)nc(OCC4(CO)CCCC4)nc3c2F)c1C(F)(F)F [Example E198, (1-(((7-(6-amino-4-methyl-3-(trifluoromethyl)pyridin-2-yl)-4-(3,8-diazabicyclo[3.2.1]octan-3-yl)-6-chloro-8-fluoroquinazolin-2-yl)oxy)methyl)cyclopentyl) methanol]
